The text below walks through data of US6569631B1, “Microplate thermal shift assay for ligand development using 5-(4″dimethylaminophenyl)-2-(4′-phenyl)oxazole derivative fluorescent dyes” (3-Dimensional Pharmaceuticals, Inc., priority 1998, dated 2003).

The target of series [1] is T1, heparin binding site of human α-thrombin (Homo sapiens, UniProt P00734).
T1 construct: A stock human α-thrombin solution (1.56 mg/mL) from Enzyme Research Labs; purchased Enzyme Research Labs
Put plainly: Microplate thermal shift assay, ligands binding to the heparin binding site, turbidity signal. The text has this: Assays for ligands that bind to the heparin binding site of human α-thrombin are more difficult to perform than assays for ligands that bind to the active site of human α-thrombin. At the heparin binding site, no substrate is hydrolyzed, so no spectrophotometric signal can be amplified for instrumental detection. Heparin activity is usually estimated in biological clotting time assays. […] Thus, heparin binding to human α-thrombin represents the kind of challenge encountered with the vast majority of non-enzyme receptor/ligand binding events, which are commonly observed for hormone/receptor interactions, repressor/DNA interactions, neurotransmitter/receptor interactions, etc. Several heparin-like sulfated oligosaccharides and sulfated naphthalene compounds were assayed by the microplate thermal shift assay. Using the thermal shift assay, it was possible to use a single compound per well to quickly rank the compounds in order of increasing binding affinity, with Kd's ranging over three orders of magnitude (see Table 4). Like the experiment in Example 1, the thermal shift assay results agreed closely with the results obtained through an alternative method, which required a series of laborious (15 to 20 single determinations) fluorescence quench assays over a wide range of concentrations of low MW heparin (Olson, S. T. et al., J. Biol. Chem. 266:6342-6352 (1991)).

The target in series [2] is T2, acidic fibroblast growth factor (aFGF) (Homo sapiens, UniProt P05230).
T2 construct: host or cells: E. coli
Put plainly: Microplate thermal shift assay for ligands binding to aFGF, turbidity signal. Conditions: turbidity signal; aFGF 0.25 mg/mL; ligand 47-200 μM. The source says:
The second therapeutic receptor tested in the microplate thermal shift assay was acidic fibroblast growth factor (aFGF), a growth factor that plays a key role in angiogenesis (Folkman, J. et al., J. Biol. Chem. 267:1.0931-10934 (1992)). A synthetic gene for this protein was purchased from R&D Systems (Minneapolis, Minn.), and was cloned and expressed in E. coli using methods similar to those described for basic fibroblast growth factor (bFGF) (Thompson, L. D. et al., Biochemistry 33:3831-3840 (1994); Pantoliano, M. W. et al., Biochemistry 33:10229-10248 (1994); Springer, B. A. et al., J. Biol. Chem. 269:26879-26884 (1994)). Recombinant aFGF was then purified by heparin-sepharose affinity chromatography as described (Thompson, L. D. et al., Biochemistry 33:3831-3840 (1994)). aFGF is also known to bind heparin/heparan, which is a cofactor for mitogenic activity. […] A microplate thermal assay of these compounds was set up in a way similar to that described above for human α-thrombin. […] The affinity constants covered a fairly broad range of binding affinities, with pentosan PSO4 showing the highest affinity.

Series [3] deals with D(II) domain of fibroblast growth factor receptor 1 (FGFR1). Put plainly: Microplate thermal shift assay for ligands binding to D(II) FGFR1, fluorescence emission signal. On the set-up: species or system human. The settings on record: D(II) FGFR1 70 μM; 136 μM ANS; ligand 150-156 μM. The source says:
The microplate thermal-shift assay was employed to test the binding of heparin 5000 and pentosan PSO4 to the known heparin binding site in the D(II) domain of fibroblast growth factor receptor 1 (FGFR1). D(II) FGFR1 is a 124 residue domain which is responsible for most of the free energy of binding for bFGF. D(II) FGFR1 was cloned and expressed in E. coli. Recombinant D(II) FGFR1 was renatured from inclusion bodies essentially as described (Wetmore, D. R. et al., Proc. Soc. Mtg., San Diego, Calif. (1994)), except that a hexa-histidine tag was included at the N-terminus to facilitate recovery by affinity chromatography on a Ni^2+ chelate column (Janknecht, R. et al., Natl. Acad. Sci. USA 88:8972-8976 (1991)). D(II) FGFR1 was further purified on a heparin-sepharose column (Kan, M. et al., Science 259:1918-1921 (1993); Pantoliano, M. W. et al., Biochemistry 33:10229-10248 (1994)). […]
The D(II) FGFR1 protein was dissolved in an ANS solution to a concentration of 1.0 mg/mL (70 μM). […] Because ANS fluorescence is very environment dependent (see Lakowicz, I. R., Principles of Fluorescence Spectroscopy, Plenum Press, New York (1983)), the quantum yield observed for the denaturation of different proteins will vary. […] A similar result was obtained for Factor Xa, except that the fluorescence quantum yield for ANS bound to denatured Factor Xa was almost as good as it was for human α-thrombin.

Series [4] has as its target bFGF (Homo sapiens, UniProt P09038). Conditions: read-out: affinity for binding to bFGF by isothermal titrating calorimetry; cited from earlier work.
The conditions of series [5]: many described as coagulation anomalies; cited from earlier work.

Chain of bFGF (P09038 134-288): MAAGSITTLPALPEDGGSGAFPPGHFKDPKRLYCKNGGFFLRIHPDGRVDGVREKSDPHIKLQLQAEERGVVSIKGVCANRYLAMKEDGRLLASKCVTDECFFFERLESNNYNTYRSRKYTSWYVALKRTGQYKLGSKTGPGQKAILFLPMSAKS
T2 sequence (P05230 whole entry, species assumed): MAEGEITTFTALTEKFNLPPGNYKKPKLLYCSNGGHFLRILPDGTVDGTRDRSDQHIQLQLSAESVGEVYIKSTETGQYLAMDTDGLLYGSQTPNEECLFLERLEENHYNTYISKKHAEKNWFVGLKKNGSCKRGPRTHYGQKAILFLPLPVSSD
Chain of D(II) domain of fibroblast growth factor receptor 1 (FGFR1) (P11362 158-246 limits assumed): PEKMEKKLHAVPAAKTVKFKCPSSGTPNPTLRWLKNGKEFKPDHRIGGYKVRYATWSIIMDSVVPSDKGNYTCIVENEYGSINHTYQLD

Consider pentosan polysulfate [Pentosan PSO4], for which the “affinity at Tm higher than the affinity of heparin 5000” value in series [1] (thermal shift assay, Table 4) stood at 7 fold. In addition, the Tm in series [1] (turbidity signal, 11 μM thrombin, ligand 40-102 μM) is recorded as 332.15 °K; in series [2], 336.15 °K; in series [3], 319.4 °K. In addition, in series [4], the Kd was 88 nM. Also, the “outcome of clinical trials for antiangiogenic activity” value in series [5] is on record as “discounted due to toxic effects”.
